The test system of the test is Krebszellen der Zellinie BIR-M1Rk. It counts as cell-based, Marshall-Ratten.

On to `COC(CCOCc1ccccc1)(CCOP(N)(=O)N(CCCl)CCCl)OC` (racemic) [Beispiel 6], for which the “um den Faktor verringerte Überlebensrate der Krebszellen” value (pH 6) is reported as 10 000. The Toxizität result (pH 7) was “nur eine geringe Toxizität”.
